Measured values published in US20100255580A1, “Differentiation of Human Embryonic Stem Cells” (LIFESCCAN, INC., priority 2007, published 2010).
Values joined by “and” are separate entries in the source; they are usually repeats but may differ in a detail not shown here. Identical values can stand only once.

What was measured:
[1] = system: human embryonic stem cell line H9; test: FACS analysis of protein expression following activin A treatment, H9 on MEF; type: cell-based; details: for CD9 protein expression (FACS) / CXCR4 protein expression (FACS) / ECAM protein expression (FACS) / NCAM protein expression (FACS) / SSEA-3 protein expression (FACS): activin A 100 ng/ml
Description: The level of expression of definitive endoderm markers was examined by PCR (FIG. 1), FACS (results summarized in Table II), and immunohistochemistry (FIG. 2).
Adhered cells were removed from culture plates by five-minute incubation with TrypLE™ Express solution (Invitrogen, CA). Released cells were resuspended in human embryonic stem cell culture medium and recovered by centrifugation, followed by washing and resuspending the cells in a staining buffer consisting of 2% BSA, 0.05% sodium azide in PBS (Sigma, MO). As appropriate, the cells were Fc-receptor blocked for 15 minutes using a 0.1% γ-globulin (Sigma) solution. […] Controls included appropriate isotype matched antibodies, unstained cells, and cells stained only with secondary conjugated antibody. All incubations with antibodies were performed for 30 mins at 4° C. after which the cells were washed with the staining buffer. Samples that were stained with unconjugated primary antibodies were incubated for an additional 30 mins at 4° C. with secondary conjugated PE or -APC labeled antibodies. See Table I for a list of secondary antibodies used. Washed cells were pelleted and resuspended in the staining buffer, and the cell surface molecules were identified using a FACS Array (BD Biosciences) instrument, collecting at least 10,000 events.

[2] = system: human embryonic stem cell line H9; test: Cytokine array analysis of cell lysates and conditioned media; type: cell-based; parameters: key to BMP-4 expression / BMP-6 expression / EGF expression / FGF-6 expression / Fractalkine expression / GCP-2 expression / IL-3 expression / IL-4 expression / IL-6 expression / M-CSF expression / MIG expression / Amphiregulin expression: cytokine array signal, normalized and background-subtracted
Description: The effect that Wnt-3a treatment has on cytokine expression was analyzed using a protein array. Cells of the human embryonic stem cell line H9 were cultured according to the methods described in Example 15. At passage 54, cells were differentiated in the presence of 100 ng/ml ActivinA+/−10 ng/ml Wnt3a for 2 days in 0.5% FBS DMEM/F12. Cells were subsequently cultured for an additional three days in 100 ng/mlActivin A and 2% FBS DMEM/F12. At the end of the 5th day, CXCR4 expression was determined by FACS for each treatment group.
Cell lysates were prepared from cells of each treatment group, with a mammalian cell lysis kit (Sigma-Aldrich, MO). Conditioned media from each treatment group was collected and concentrated. Cytokine array analysis was completed using Cytokine Array panels provided by RayBiotech, GA (http://www.raybiotech.com/). Table VII lists cytokine, growth factor, and receptor expression following normalization of the data and background subtraction. For each panel, positive and negative controls are also included. Th data shown are two independent samples per cell treatment group (1,2).

“Activin A: a member of the TGFβ superfamily; R&D Systems; Group 2 = Activin A (100 ng/ml)” was tested, and the “CD9 protein expression (FACS)” value ([1]; 2-DAY) was 29.42%, the “CXCR4 protein expression (FACS)” value ([1]; 2-DAY) was 20.2% and the “ECAM protein expression (FACS)” value ([1]; 2-DAY) was 20.87%. For the same substance, the “NCAM protein expression (FACS)” value ([1]; 2-DAY) was 5.04%, the “SSEA-3 protein expression (FACS)” value ([1]; 2-DAY) was 92.14% and the “CD9 protein expression (FACS)” value ([1]; 5-DAY) was 7.27%. The “CXCR4 protein expression (FACS)” value ([1]; 5-DAY) was 55.26%, the “ECAM protein expression (FACS)” value ([1]; 5-DAY) was 14.17% and the “NCAM protein expression (FACS)” value ([1]; 5-DAY) was 21.1%. For the same substance, the “SSEA-3 protein expression (FACS)” value ([1]; 5-DAY) was 42.9%, the “CD9 protein expression (FACS)” value ([1]; 8-DAY) was 4.1% and the “CXCR4 protein expression (FACS)” value ([1]; 8-DAY) was 56.92%. For the same substance, the “ECAM protein expression (FACS)” value ([1]; 8-DAY) was 1.02%, the “NCAM protein expression (FACS)” value ([1]; 8-DAY) was 8.86% and the “SSEA-3 protein expression (FACS)” value ([1]; 8-DAY) was 22.05%. The “expression of E-cadherin and N-cadherin (FACS)” value ([1]; following activin A treatment) was “did not change”, the 1L-1beta expression ([2]; Cell conditioned media) was 117.99 and 75.93 and the 1L-1ra expression ([2]; Cell conditioned media) was 142.34 and 93.74. The Acrp30 expression ([2]; Cell conditioned media) was 1,797.52 and 1,319.88, the AgRP expression ([2]; Cell conditioned media) was 378.17 and 195.90 and the Amphiregulin expression ([2]; Cell conditioned media) was 250.52 and 151.01. For the same substance, the Angiogenin expression ([2]; Cell conditioned media) was 13,726.35 and 11,749.55, the Angiopoietin-2 expression ([2]; Cell conditioned media) was 655.82 and 632.60 and the AxI expression ([2]; Cell conditioned media) was 401.31 and 324.05. For the same substance, the BDNF expression ([2]; Cell conditioned media) was 689.22 and 563.39, the BMP-4 expression ([2]; Cell conditioned media) was 583.40 and 541.83 and the BMP-6 expression ([2]; Cell conditioned media) was 354.91 and 355.28. For the same substance, the “CK beta 8-1 expression” value ([2]; Cell conditioned media) was 17.79 and 25.31, the CNTF expression ([2]; Cell conditioned media) was 282.81 and 211.86 and the EGF expression ([2]; Cell conditioned media) was 1,681.85 and 1,406.12. The Eotaxin expression ([2]; Cell conditioned media) was 207.89 and 199.67, the Eotaxin-2 expression ([2]; Cell conditioned media) was 890.56 and 744.31 and the Eotaxin-3 expression ([2]; Cell conditioned media) was 975.77 and 665.56. For the same substance, the FGF-7 expression ([2]; Cell conditioned media) was 449.49 and 352.47, the “Flt-3 Ligand expression” value ([2]; Cell conditioned media) was 315.58 and 277.47 and the Fractalkine expression ([2]; Cell conditioned media) was 120.80 and 145.30. The GCP-2 expression ([2]; Cell conditioned media) was 203.21 and 166.86, the GDNF expression ([2]; Cell conditioned media) was 176.99 and 194.98 and the GM-CSF expression ([2]; Cell conditioned media) was 777.25 and 722.75. For the same substance, the IFN-gamma expression ([2]; Cell conditioned media) was 283.74 and 559.64, the IGF-I expression ([2]; Cell conditioned media) was 88.96 and 148.11 and the IGFBP-1 expression ([2]; Cell conditioned media) was 33.71 and 24.37. For the same substance, the IGFBP-2 expression ([2]; Cell conditioned media) was 27,656.85 and 28,473.95, the IGFBP-4 expression ([2]; Cell conditioned media) was 10,091.09 and 6,029.45 and the IL-1alpha expression ([2]; Cell conditioned media) was 10,155.70 and 5,842.90. The IL-2 expression ([2]; Cell conditioned media) was 188.22 and 363.72, the IL-3 expression ([2]; Cell conditioned media) was 4,598.86 and 5,260.77 and the IL-4 expression ([2]; Cell conditioned media) was 357.72 and 239.04. The IL-6 expression ([2]; Cell conditioned media) was 7,377.28 and 9,527.88, the IL-7 expression ([2]; Cell conditioned media) was 456.98 and 430.27 and the IL-10 expression ([2]; Cell conditioned media) was 722.93 and 564.32. For the same substance, the IL-16 expression ([2]; Cell conditioned media) was 259.39 and 214.67, the LIGHT expression ([2]; Cell conditioned media) was 619.92 and 453.71 and the Leptin expression ([2]; Cell conditioned media) was 2,999.42 and 2,016.38. For the same substance, the M-CSF expression ([2]; Cell conditioned media) was 529.09 and 269.04, the MCP-1 expression ([2]; Cell conditioned media) was 572.17 and 500.58 and the MCP-4 expression ([2]; Cell conditioned media) was 123.61 and 61.87. For the same substance, the MIG expression ([2]; Cell conditioned media) was 272.50 and 486.52, the NAP-2 expression ([2]; Cell conditioned media) was 97.39 and 110.61 and the NT-3 expression ([2]; Cell conditioned media) was 97.39 and 171.55. The PDGF-BB expression ([2]; Cell conditioned media) was 4,729.96 and 8,521.09, the RANTES expression ([2]; Cell conditioned media) was 393.31 and 347.78 and the SCF expression ([2]; Cell conditioned media) was 691.09 and 487.46. For the same substance, the “TGF-beta 1 expression” value ([2]; Cell conditioned media) was 752.90 and 740.56, the “TGF-beta 3 expression” value ([2]; Cell conditioned media) was 111.44 and 115.30 and the TNF-beta expression ([2]; Cell conditioned media) was 675.17 and 671.19. The bFGF expression ([2]; Cell conditioned media) was 7,948.03 and 4,993.83, the 1L-1beta expression ([2]; Cell lysate) was 1.00 and 1.13 and the 1L-1ra expression ([2]; Cell lysate) was 33.00 and 25.91. The Amphiregulin expression ([2]; Cell lysate) was 17.50 and 15.44, the AxI expression ([2]; Cell lysate) was 637.50 and 795.83 and the BDNF expression ([2]; Cell lysate) was 167.50 and 167.82. The BMP-4 expression ([2]; Cell lysate) was 247.00 and 273.70, the “CK beta 8-1 expression” value ([2]; Cell lysate) was 1.00 and 1.13 and the Eotaxin-2 expression ([2]; Cell lysate) was 262.00 and 336.77. For the same substance, the Eotaxin-3 expression ([2]; Cell lysate) was 184.50 and 284.96, the FGF-6 expression ([2]; Cell lysate) was 629.00 and 379.57 and the GM-CSF expression ([2]; Cell lysate) was 433.00 and 636.37. For the same substance, the I-309 expression ([2]; Cell lysate) was 152.50 and 246.10, the IFN-gamma expression ([2]; Cell lysate) was 349.00 and 441.52 and the IGFBP-2 expression ([2]; Cell lysate) was 3,785.50 and 5,554.45. The IGFBP-4 expression ([2]; Cell lysate) was 5,553.00 and 6,043.27, the IL-1alpha expression ([2]; Cell lysate) was 1,236.00 and 1,216.99 and the IL-5 expression ([2]; Cell lysate) was 400.50 and 555.84. For the same substance, the IL-6 expression ([2]; Cell lysate) was 828.50 and 516.98, the IL-7 expression ([2]; Cell lysate) was 190.00 and 313.12 and the IL-13 expression ([2]; Cell lysate) was 428.50 and 555.84. The IL-15 expression ([2]; Cell lysate) was 599.50 and 808.13, the Leptin expression ([2]; Cell lysate) was 900.50 and 617.79 and the MCP-1 expression ([2]; Cell lysate) was 242.50 and 282.71. The MIG expression ([2]; Cell lysate) was 291.00 and 226.39, the MIP-1-delta expression ([2]; Cell lysate) was 1.50 and 1.13 and the NT-3 expression ([2]; Cell lysate) was 1.00 and 1.13. For the same substance, the SCF expression ([2]; Cell lysate) was 74.50 and 148.67, the “TGF-beta 1 expression” value ([2]; Cell lysate) was 362.00 and 230.33 and the TNF-alpha expression ([2]; Cell lysate) was 431.00 and 579.49. The TNF-beta expression ([2]; Cell lysate) was 241.00 and 342.40 and the bFGF expression ([2]; Cell lysate) was 59,820.50 and 54,057.29.
